Laboratory results published in the kinase profiling compilation of Christmann-Franck et al. (2016).

Tests used:
Assay in all cases: KINOMEscan competition binding
Details in all cases: compound 10.0 µM
ADCK4 (human) = ADCK4 (human) (UniProt Q96D53)
CAMK2D (human) = CAMK2D (human) (UniProt Q13557)
CHEK2 (human) = CHEK2 (human) (UniProt O96017)
CIT (human) = CIT (human) (UniProt O14578)
CSNK1G2 (human) = CSNK1G2 (human) (UniProt P78368)
CSNK1G3 (human) = CSNK1G3 (human) (UniProt Q9Y6M4)
DCLK1 (human) = DCLK1 (human) (UniProt O15075)
DYRK1A (human) = DYRK1A (human) (UniProt Q13627)
EPHA1 (human) = EPHA1 (human) (UniProt P21709)
EPHB3 (human) = EPHB3 (human) (UniProt P54753)
HIPK3 (human) = HIPK3 (human) (UniProt Q9H422)
IKBKB (human) = IKBKB (human) (UniProt O14920)
[1] = target: JAK3 JH1 catalytic (human) (UniProt P52333)
KDR (human) = KDR (human) (UniProt P35968)
LIMK1 (human) = LIMK1 (human) (UniProt P53667)
MAP3K1 (human) = MAP3K1 (human) (UniProt Q13233)
MAP3K6 (human) = MAP3K6 (human) (UniProt O95382)
MAP4K1 (human) = MAP4K1 (human) (UniProt Q92918)
MAPK8 (human) = MAPK8 (human) (UniProt P45983)
MAPK8 (human), sequence (P45983 whole entry, looked up): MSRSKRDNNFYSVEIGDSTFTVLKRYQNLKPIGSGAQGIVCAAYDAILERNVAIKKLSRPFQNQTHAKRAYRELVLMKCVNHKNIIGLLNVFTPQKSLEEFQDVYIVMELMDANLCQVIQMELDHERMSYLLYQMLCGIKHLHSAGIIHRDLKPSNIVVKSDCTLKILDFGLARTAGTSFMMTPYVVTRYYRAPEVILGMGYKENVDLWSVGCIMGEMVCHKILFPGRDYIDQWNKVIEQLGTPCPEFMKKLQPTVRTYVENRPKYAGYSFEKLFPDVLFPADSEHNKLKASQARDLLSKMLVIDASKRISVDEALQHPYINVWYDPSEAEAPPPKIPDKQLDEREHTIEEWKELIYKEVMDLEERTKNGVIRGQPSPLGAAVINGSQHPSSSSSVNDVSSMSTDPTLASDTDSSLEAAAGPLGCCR

MARK3 (human) = MARK3 (human) (UniProt P27448)
NTRK1 (human) = NTRK1 (human) (UniProt P04629)
NTRK2 (human) = NTRK2 (human) (UniProt Q16620)
NTRK3 (human) = NTRK3 (human) (UniProt Q16288)
NTRK3 (human), sequence (Q16288 whole entry, looked up): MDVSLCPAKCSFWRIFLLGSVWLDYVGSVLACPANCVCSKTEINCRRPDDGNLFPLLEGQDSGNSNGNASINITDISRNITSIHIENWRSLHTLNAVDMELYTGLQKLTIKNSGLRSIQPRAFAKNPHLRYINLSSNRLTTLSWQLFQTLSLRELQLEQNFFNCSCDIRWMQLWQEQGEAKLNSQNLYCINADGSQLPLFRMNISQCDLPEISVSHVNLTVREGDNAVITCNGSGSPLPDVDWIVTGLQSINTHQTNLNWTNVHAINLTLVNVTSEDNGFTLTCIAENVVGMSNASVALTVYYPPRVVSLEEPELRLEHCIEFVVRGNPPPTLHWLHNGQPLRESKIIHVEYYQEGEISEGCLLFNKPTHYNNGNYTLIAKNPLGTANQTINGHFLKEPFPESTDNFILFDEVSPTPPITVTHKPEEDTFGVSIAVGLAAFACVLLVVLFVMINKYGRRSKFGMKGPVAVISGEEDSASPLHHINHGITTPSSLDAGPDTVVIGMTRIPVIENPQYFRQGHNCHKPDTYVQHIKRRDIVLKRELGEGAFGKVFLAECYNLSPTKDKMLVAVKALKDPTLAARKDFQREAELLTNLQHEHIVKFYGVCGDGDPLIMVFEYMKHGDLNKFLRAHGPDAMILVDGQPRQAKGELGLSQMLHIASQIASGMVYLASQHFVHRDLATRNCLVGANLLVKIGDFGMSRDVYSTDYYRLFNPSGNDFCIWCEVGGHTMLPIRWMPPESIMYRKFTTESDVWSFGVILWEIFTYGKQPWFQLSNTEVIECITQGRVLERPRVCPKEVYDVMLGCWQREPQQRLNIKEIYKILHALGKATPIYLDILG

PAK7 (human) = PAK7 (human) (UniProt Q9P286)
PLK1 (human) = PLK1 (human) (UniProt P53350)
PLK4 (human) = PLK4 (human) (UniProt O00444)
PRKCD (human) = PRKCD (human) (UniProt Q05655)
PRKCD (human), sequence (Q05655 whole entry, looked up): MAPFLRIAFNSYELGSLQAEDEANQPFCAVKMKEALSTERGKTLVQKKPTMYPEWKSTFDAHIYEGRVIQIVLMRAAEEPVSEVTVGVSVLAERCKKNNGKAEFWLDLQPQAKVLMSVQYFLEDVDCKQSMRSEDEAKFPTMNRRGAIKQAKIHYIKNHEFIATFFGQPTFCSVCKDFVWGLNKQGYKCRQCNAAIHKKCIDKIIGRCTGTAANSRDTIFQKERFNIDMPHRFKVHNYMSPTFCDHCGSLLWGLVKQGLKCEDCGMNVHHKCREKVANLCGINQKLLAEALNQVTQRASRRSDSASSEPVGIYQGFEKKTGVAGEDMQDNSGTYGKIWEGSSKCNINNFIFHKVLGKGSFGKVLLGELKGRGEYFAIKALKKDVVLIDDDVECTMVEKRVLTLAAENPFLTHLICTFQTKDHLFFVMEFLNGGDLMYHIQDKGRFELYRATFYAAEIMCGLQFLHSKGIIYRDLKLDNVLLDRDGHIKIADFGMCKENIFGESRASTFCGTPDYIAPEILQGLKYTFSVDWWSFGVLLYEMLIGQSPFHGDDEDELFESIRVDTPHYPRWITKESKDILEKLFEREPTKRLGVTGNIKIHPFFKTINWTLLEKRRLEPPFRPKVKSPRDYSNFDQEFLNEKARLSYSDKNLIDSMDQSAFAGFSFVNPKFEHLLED

PRKCH (human) = PRKCH (human) (UniProt P24723)
PRKD1 (human) = PRKD1 (human) (UniProt Q15139)
PRKX (human) = PRKX (human) (UniProt P51817)
RIPK1 (human) = RIPK1 (human) (UniProt Q13546)
RPS6KA6 KD2 (human) = RPS6KA6 KD2 (human) (UniProt Q9UK32)
SLK (human) = SLK (human) (UniProt Q9H2G2)
SLK (human), sequence (Q9H2G2 whole entry, looked up): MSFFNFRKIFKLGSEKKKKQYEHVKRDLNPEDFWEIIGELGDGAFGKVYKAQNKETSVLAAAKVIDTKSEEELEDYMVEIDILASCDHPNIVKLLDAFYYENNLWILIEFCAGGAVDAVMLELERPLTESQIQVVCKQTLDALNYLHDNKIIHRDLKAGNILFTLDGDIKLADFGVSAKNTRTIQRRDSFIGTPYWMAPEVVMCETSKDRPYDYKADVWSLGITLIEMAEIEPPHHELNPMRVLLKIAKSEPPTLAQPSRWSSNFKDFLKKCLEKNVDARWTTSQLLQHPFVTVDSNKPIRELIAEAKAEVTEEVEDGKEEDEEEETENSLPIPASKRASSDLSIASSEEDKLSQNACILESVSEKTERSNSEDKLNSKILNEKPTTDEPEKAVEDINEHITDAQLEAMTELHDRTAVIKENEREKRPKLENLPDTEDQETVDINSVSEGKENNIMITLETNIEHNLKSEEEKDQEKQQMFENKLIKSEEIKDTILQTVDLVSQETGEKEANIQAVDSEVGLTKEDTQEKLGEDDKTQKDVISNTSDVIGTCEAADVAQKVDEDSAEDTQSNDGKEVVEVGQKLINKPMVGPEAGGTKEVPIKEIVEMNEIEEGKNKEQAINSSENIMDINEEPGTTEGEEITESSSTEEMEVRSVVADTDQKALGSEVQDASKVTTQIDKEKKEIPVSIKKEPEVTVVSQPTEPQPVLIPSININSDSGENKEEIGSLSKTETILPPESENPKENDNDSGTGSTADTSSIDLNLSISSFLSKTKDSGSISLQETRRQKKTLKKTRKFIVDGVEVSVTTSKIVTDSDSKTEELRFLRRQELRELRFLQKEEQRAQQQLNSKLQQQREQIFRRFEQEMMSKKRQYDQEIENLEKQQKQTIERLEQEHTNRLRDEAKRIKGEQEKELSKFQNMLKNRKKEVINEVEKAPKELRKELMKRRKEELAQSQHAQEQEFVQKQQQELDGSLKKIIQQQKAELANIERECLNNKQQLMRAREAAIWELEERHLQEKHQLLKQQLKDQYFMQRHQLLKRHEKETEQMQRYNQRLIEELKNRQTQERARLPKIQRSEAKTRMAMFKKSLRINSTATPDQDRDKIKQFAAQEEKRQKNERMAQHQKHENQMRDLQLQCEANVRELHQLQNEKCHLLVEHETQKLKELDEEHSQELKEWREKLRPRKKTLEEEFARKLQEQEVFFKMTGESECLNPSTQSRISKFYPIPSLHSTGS

STK4 (human) = STK4 (human) (UniProt Q13043)
SYK (human) = SYK (human) (UniProt P43405)
TLK2 (human) = TLK2 (human) (UniProt Q86UE8)
TNNI3K (human) = TNNI3K (human) (UniProt Q59H18)
YES1 (human) = YES1 (human) (UniProt P07947)
YES1 (human), sequence (P07947 whole entry, looked up): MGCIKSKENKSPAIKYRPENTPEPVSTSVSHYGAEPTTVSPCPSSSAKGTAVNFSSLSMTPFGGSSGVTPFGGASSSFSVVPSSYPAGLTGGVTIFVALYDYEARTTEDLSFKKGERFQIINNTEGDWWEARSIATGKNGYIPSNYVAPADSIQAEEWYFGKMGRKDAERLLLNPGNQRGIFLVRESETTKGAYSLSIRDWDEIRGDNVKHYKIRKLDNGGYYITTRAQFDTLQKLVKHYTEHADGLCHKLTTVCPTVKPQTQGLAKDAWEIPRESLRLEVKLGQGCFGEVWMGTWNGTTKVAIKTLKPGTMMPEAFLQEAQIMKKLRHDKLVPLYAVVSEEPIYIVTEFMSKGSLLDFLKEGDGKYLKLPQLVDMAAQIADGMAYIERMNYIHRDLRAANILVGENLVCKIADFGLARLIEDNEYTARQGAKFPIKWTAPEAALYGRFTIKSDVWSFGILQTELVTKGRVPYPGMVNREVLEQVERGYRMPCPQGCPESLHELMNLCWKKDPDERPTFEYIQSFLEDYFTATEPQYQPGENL

CDKL1 (human) = CDKL1 (human) (UniProt Q00532)
CRK2 (P.falciparum) = CRK2 (P.falciparum) (UniProt P61075)
CRK2 (P.falciparum), sequence (P61075 whole entry, looked up): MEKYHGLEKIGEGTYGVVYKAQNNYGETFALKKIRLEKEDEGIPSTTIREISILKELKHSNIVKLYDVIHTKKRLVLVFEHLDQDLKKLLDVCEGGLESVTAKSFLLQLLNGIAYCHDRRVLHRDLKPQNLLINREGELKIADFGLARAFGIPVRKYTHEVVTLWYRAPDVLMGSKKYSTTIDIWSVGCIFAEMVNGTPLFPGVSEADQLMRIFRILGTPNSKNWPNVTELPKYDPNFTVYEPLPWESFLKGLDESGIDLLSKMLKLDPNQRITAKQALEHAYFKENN

CSNK1G3 (human), sequence (Q9Y6M4 whole entry, looked up): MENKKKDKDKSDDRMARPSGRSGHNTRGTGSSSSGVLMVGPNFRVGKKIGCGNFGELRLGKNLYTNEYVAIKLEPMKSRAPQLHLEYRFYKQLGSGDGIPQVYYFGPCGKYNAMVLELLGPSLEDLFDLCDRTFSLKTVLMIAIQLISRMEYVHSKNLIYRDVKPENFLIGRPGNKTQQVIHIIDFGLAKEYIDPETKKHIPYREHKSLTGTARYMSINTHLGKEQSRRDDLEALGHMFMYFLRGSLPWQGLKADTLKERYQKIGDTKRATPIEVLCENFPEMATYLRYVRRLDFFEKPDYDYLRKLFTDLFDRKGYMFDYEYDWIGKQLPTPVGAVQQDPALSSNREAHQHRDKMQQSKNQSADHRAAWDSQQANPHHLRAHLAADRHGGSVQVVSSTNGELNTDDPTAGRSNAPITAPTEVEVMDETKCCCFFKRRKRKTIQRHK
ADCK4 (human), sequence (Q96D53 whole entry, looked up): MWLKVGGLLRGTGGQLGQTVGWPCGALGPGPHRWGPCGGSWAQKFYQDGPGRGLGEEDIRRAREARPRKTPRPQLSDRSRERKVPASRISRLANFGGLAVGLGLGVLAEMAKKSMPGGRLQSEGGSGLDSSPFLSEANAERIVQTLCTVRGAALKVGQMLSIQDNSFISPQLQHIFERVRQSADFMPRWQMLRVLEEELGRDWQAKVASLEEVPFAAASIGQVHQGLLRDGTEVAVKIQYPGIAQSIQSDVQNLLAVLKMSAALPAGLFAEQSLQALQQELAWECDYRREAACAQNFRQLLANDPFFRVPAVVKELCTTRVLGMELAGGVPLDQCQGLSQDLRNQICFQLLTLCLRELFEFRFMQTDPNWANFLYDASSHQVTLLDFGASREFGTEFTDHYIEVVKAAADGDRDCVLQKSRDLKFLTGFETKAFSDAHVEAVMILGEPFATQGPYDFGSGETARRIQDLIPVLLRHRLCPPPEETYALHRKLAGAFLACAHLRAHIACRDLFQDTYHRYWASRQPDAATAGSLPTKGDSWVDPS

Row | Structure (SMILES) | kinase still bound, per cent of control (ADCK4 (human)) [%] | kinase still bound, per cent of control (CAMK2D (human)) [%] | kinase still bound, per cent of control (CHEK2 (human)) [%] | kinase still bound, per cent of control (CIT (human)) [%] | kinase still bound, per cent of control (CSNK1G2 (human)) [%] | kinase still bound, per cent of control (CSNK1G3 (human)) [%] | kinase still bound, per cent of control (DCLK1 (human)) [%] | kinase still bound, per cent of control (DYRK1A (human)) [%] | kinase still bound, per cent of control (EPHA1 (human)) [%] | kinase still bound, per cent of control (EPHB3 (human)) [%] | kinase still bound, per cent of control (HIPK3 (human)) [%] | kinase still bound, per cent of control (IKBKB (human)) [%] | kinase still bound, per cent of control [1] [%] | kinase still bound, per cent of control (KDR (human)) [%] | kinase still bound, per cent of control (LIMK1 (human)) [%] | kinase still bound, per cent of control (MAP4K1 (human)) [%] | kinase still bound, per cent of control (MAPK8 (human)) [%] | kinase still bound, per cent of control (MARK3 (human)) [%] | kinase still bound, per cent of control (NTRK1 (human)) [%] | kinase still bound, per cent of control (NTRK2 (human)) [%] | also measured
1 | Cc1cn(-c2cc(C(=O)Nc3ccc(C)c(NC(=O)c4ccno4)c3)cc(C(F)(F)F)c2)cn1 | 100 | 100 | 100 | 31 | 100 | 100 | 100 | 100 | 100 | 27 | 100 | 100 | 100 | 100 | 100 | 100 | 100 | 100 | 100 | 100 | kinase still bound, per cent of control (MAP3K1 (human)): 100%; kinase still bound, per cent of control (MAP3K6 (human)): 100%; kinase still bound, per cent of control (NTRK3 (human)): 100%; kinase still bound, per cent of control (PAK7 (human)): 100%; kinase still bound, per cent of control (PLK1 (human)): 100%; kinase still bound, per cent of control (PLK4 (human)): 100%; kinase still bound, per cent of control (PRKCD (human)): 100%; kinase still bound, per cent of control (PRKCH (human)): 100%; kinase still bound, per cent of control (PRKD1 (human)): 100%; kinase still bound, per cent of control (PRKX (human)): 100%; kinase still bound, per cent of control (RIPK1 (human)): 100%; kinase still bound, per cent of control (RPS6KA6 KD2 (human)): 100%; kinase still bound, per cent of control (SLK (human)): 100%; kinase still bound, per cent of control (STK4 (human)): 100%; kinase still bound, per cent of control (SYK (human)): 100%; kinase still bound, per cent of control (TLK2 (human)): 100%; kinase still bound, per cent of control (TNNI3K (human)): 29%; kinase still bound, per cent of control (YES1 (human)): 13%
2 | CCOc1cc(N2CCC(O)CC2)ccc1Nc1ncc2c(n1)N(C)c1ccccc1C(=O)N2C | 100 | 100 | 100 | 100 | 100 | 100 | 0.9 | 100 | 100 | 100 | 100 | 100 | 100 | 100 | 100 | 100 | 100 | 100 | 100 | 100 | kinase still bound, per cent of control (MAP3K1 (human)): 100%; kinase still bound, per cent of control (MAP3K6 (human)): 100%; kinase still bound, per cent of control (NTRK3 (human)): 100%; kinase still bound, per cent of control (PAK7 (human)): 100%; kinase still bound, per cent of control (PLK1 (human)): 100%; kinase still bound, per cent of control (PLK4 (human)): 2.8%; kinase still bound, per cent of control (PRKCD (human)): 100%; kinase still bound, per cent of control (PRKCH (human)): 100%; kinase still bound, per cent of control (PRKD1 (human)): 100%; kinase still bound, per cent of control (PRKX (human)): 100%; kinase still bound, per cent of control (RIPK1 (human)): 100%; kinase still bound, per cent of control (RPS6KA6 KD2 (human)): 31%; kinase still bound, per cent of control (SLK (human)): 100%; kinase still bound, per cent of control (STK4 (human)): 100%; kinase still bound, per cent of control (SYK (human)): 100%; kinase still bound, per cent of control (TLK2 (human)): 100%; kinase still bound, per cent of control (TNNI3K (human)): 100%; kinase still bound, per cent of control (YES1 (human)): 100%
3 | CCN(CCO)CCCOc1ccc2c(Nc3cc(CC(=O)Nc4cccc(F)c4)[nH]n3)ncnc2c1 | 83 | 93 | 100 | 27 | 76 | 100 | 51 | 100 | 100 | 100 | 29 | 91 | 87 | 2.7 | 100 | 76 | 59 | 88 | 6.8 | 8.2 | kinase still bound, per cent of control (CDKL1 (human)): 84%; kinase still bound, per cent of control (CRK2 (P.falciparum)): 100%; kinase still bound, per cent of control (NTRK3 (human)): 56%; kinase still bound, per cent of control (PAK7 (human)): 100%; kinase still bound, per cent of control (PLK1 (human)): 100%; kinase still bound, per cent of control (PRKCD (human)): 91%; kinase still bound, per cent of control (PRKCH (human)): 100%; kinase still bound, per cent of control (PRKD1 (human)): 72%; kinase still bound, per cent of control (PRKX (human)): 66%; kinase still bound, per cent of control (RIPK1 (human)): 100%; kinase still bound, per cent of control (RPS6KA6 KD2 (human)): 64%; kinase still bound, per cent of control (SLK (human)): 64%; kinase still bound, per cent of control (STK4 (human)): 40%; kinase still bound, per cent of control (TLK2 (human)): 100%; kinase still bound, per cent of control (TNNI3K (human)): 100%; kinase still bound, per cent of control (YES1 (human)): 42%
